Test results published in PMC10122081 (European Journal of Drug Metabolism and Pharmacokinetics, 2023).
Several values for one entry are separate records, joined by “and”; a condition that tells them apart may be missing. Equal entries are not always repeated.

Experiments:
[1] = target: CYP3A5 (Homo sapiens, UniProt P20815); assay: CYP phenotyping; conditions: CYP3A5 bactosomes, 1 µM DMT fumarate
[2] = assay type: in vivo, human
[3] = bolus IV administration, healthy volunteers; cited from earlier work
[4] = target: T1, CYP2C8 (Homo sapiens, UniProt P10632); assay: CYP phenotyping; conditions: CYP2C8 bactosomes, 1 µM DMT fumarate
T1 sequence (P10632 1-490): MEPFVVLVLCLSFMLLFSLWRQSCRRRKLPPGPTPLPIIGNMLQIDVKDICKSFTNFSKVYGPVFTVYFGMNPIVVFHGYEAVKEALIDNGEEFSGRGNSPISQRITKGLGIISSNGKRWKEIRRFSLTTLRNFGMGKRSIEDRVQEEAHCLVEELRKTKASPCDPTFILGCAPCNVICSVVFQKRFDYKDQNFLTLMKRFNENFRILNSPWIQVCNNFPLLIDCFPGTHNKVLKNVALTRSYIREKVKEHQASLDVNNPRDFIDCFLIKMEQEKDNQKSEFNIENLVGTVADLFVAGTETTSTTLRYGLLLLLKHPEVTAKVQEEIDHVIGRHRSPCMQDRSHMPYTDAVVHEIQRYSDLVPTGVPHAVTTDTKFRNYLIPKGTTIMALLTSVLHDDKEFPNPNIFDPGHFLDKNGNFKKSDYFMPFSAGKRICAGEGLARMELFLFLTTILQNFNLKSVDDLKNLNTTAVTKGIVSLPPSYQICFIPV

[5] = system: MAO-A; assay: Metabolic stability in human liver mitochondrial fraction; assay type: in vitro ADME; conditions: both, liver mitochondrial fractions, with clorgyline 100 nM
[6] = target: CYP3A4 (Homo sapiens, UniProt P08684); assay: CYP phenotyping; conditions: CYP3A4 bactosomes, 1 µM DMT fumarate
[7] = Blood:plasma ratio; assay type: in vitro ADME; conditions: human, fresh whole blood and plasma
[8] = target: T2, CYP2B6 (Homo sapiens, UniProt P20813); assay: CYP phenotyping; conditions: CYP2B6 bactosomes, 1 µM DMT fumarate
T2 sequence (P20813 1-491): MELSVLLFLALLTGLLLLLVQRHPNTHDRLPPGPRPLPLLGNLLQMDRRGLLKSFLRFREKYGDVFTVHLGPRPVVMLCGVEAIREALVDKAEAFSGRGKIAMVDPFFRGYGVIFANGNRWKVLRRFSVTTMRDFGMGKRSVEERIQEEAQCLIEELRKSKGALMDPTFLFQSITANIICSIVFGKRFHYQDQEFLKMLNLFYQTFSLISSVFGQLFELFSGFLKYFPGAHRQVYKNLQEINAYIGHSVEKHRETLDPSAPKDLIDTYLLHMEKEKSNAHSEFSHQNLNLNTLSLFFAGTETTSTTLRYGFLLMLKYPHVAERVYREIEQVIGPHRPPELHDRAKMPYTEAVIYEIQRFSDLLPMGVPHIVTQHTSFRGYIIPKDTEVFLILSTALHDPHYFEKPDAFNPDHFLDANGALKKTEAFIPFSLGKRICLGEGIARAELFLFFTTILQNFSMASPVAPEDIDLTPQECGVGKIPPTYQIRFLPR

[9] = target: CYP2D6 (Homo sapiens, UniProt P10635); assay: CYP phenotyping; conditions: CYP2D6 bactosomes, 1 µM DMT fumarate
[10] = Plasma protein binding; conditions: plasma protein binding result
[11] = target: CYP2C19 (Homo sapiens, UniProt P33261); assay: CYP phenotyping; conditions: CYP2C19 bactosomes, 1 µM DMT fumarate
[12] = physchem; assay type: physicochemical; conditions: pH 7.4
[13] = system: healthy subjects; assay: Phase I clinical safety and tolerability; assay type: in vivo, human; conditions: all four doses, 9–21.5 mg IV
[14] = target: T3, CYP1A2 (Homo sapiens, UniProt P05177); assay: CYP phenotyping; conditions: CYP1A2 bactosomes, 1 µM DMT fumarate
T3 sequence (P05177 1-516): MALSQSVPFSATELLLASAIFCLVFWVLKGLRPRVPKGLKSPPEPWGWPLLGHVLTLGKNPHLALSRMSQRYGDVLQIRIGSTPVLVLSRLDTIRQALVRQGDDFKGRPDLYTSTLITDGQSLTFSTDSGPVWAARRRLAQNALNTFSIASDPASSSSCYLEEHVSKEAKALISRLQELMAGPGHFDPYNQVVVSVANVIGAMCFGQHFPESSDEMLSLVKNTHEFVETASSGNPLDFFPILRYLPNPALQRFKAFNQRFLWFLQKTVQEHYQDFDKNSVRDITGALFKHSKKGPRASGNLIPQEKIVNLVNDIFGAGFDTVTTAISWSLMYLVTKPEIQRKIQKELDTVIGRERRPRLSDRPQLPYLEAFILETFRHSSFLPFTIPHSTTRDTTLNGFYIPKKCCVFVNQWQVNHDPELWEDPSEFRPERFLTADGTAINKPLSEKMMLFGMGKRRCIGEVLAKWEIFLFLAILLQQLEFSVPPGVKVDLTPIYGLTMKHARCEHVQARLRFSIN

[15] = target: CYP2C9 (Homo sapiens, UniProt P11712); assay: CYP phenotyping; conditions: CYP2C9 bactosomes, 1 µM DMT fumarate
CYP2C9, sequence (P11712 whole entry): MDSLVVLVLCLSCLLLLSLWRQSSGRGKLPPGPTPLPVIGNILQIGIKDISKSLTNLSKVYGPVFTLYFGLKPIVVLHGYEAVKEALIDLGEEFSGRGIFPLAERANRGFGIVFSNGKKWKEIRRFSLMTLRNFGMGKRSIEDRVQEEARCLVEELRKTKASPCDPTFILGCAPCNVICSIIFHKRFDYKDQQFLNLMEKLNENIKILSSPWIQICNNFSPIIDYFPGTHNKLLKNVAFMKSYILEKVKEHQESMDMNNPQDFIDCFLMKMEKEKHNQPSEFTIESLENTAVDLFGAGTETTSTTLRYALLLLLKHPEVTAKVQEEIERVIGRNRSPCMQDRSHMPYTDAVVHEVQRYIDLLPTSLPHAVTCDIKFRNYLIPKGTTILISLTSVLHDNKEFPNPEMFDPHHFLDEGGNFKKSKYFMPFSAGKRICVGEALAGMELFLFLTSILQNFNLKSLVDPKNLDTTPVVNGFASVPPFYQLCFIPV

CYP3A5, sequence (P20815 whole entry): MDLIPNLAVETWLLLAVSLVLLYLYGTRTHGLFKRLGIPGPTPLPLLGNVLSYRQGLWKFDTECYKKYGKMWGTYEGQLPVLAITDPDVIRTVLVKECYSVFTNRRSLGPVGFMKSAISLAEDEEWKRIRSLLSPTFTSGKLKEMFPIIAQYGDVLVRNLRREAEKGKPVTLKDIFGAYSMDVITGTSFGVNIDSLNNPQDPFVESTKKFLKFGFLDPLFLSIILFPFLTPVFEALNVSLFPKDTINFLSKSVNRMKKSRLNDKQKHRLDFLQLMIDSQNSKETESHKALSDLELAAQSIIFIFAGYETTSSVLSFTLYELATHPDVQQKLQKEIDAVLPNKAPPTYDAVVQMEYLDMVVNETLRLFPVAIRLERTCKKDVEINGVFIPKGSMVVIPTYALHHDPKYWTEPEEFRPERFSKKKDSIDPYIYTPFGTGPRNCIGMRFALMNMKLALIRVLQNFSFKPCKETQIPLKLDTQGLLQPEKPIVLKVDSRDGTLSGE
CYP2D6, sequence (P10635 whole entry): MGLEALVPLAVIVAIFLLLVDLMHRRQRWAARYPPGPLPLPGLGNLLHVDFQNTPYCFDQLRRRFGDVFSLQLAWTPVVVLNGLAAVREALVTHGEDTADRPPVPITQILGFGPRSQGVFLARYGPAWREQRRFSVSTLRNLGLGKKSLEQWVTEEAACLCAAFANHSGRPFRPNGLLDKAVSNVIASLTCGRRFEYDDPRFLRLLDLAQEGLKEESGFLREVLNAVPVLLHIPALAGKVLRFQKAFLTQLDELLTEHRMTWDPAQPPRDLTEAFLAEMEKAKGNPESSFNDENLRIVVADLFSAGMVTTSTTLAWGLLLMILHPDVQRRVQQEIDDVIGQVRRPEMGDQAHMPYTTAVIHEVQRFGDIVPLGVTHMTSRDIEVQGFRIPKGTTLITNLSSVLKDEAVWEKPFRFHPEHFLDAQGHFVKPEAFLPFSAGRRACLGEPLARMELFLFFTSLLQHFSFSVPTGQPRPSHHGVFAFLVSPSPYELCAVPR
CYP3A4, sequence (P08684 whole entry): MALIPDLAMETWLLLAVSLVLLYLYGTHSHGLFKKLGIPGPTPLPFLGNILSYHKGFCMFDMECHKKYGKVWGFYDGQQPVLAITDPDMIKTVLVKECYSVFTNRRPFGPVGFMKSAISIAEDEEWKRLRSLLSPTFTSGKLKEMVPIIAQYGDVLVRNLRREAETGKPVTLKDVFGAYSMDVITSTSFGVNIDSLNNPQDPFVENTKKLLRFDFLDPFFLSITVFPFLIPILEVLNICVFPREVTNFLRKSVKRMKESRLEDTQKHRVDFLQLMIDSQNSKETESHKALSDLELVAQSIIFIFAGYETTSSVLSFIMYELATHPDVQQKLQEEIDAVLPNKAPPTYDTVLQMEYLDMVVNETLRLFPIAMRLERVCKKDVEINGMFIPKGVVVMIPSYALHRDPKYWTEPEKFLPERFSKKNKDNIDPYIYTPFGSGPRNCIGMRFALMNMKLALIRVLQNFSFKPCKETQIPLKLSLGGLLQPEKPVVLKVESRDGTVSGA
CYP2C19, sequence (P33261 whole entry): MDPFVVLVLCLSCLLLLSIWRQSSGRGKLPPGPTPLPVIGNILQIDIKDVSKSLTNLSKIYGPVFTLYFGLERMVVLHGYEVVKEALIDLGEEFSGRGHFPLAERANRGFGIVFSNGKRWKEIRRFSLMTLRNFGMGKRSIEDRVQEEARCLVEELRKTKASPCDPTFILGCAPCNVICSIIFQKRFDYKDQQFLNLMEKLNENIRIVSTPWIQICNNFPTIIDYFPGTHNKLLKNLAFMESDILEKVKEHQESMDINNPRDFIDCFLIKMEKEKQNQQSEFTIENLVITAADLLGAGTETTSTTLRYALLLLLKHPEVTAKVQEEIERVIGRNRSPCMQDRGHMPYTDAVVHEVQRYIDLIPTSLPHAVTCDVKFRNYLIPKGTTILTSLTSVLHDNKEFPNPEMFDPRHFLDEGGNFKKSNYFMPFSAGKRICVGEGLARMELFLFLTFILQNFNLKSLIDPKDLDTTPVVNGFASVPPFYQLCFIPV

## CN(C)CCc1c[nH]c2ccccc12 [DMT, N,N-dimethyltryptamine]
[1]
  Intrinsic clearance (no turnover detected): < 29 µl/min/nmol CYP
[2]; all cohorts
  Mean measured concentrations of DMT at the 120 min and 240 min time points: < 0.1 ng/mL
[2]; human, plasma, intravenous, 6 mg, Individual C5min, following a 6 mg dose over 5 min, across all dose cohorts
  concentration at 5 min: 0.00332 to 0.043 µg/mL
[2]; human, plasma, iv, Mean elimination half-life (plasma), all doses, 9–21.5 mg IV 10-min infusion
  half-life: 10 to 12 min
[3]
  Time to peak blood concentrations: approximately 2 min
[4]
  Intrinsic clearance (no turnover detected): < 29 µl/min/nmol CYP
[5]
  microsomal CLint at 3.1 µM: < 3.9 µL/min/mg
[6]
  Intrinsic clearance (no turnover detected): < 29 µl/min/nmol CYP
[7]
  blood plasma ratio at 30 min, 1 µM: 1.53
[8]
  Intrinsic clearance (no turnover detected): < 29 µl/min/nmol CYP
[9]
  Intrinsic clearance: 801 µl/min/nmol CYP
[10]
  Unbound in human plasma: > 65% and 67.7%
[11]
  Intrinsic clearance: 37 µl/min/nmol CYP
[12]
  logD: 0.15
[13]
  Safety and tolerability: safe and well tolerated
  Serious adverse events: no serious AEs
[14]
  Intrinsic clearance (no turnover detected): < 29 µl/min/nmol CYP
[15]
  Intrinsic clearance (no turnover detected): < 29 µl/min/nmol CYP
